# Source: patent US9518018B2, “3-alkoxy, thioalkyl and amino-4-amino-6-(substituted)picolinates and their use as herbicides” (Dow AgroSciences LLC, priority 2011, dated 2016)
# How the values were obtained:
# Format in all cases: in vivo
# [1] = test system: AMARE: pigweed, redroot (Amaranthus retroflexus); experiment: Pre-emergent Test I herbicidal activity; details: Table 5, 140 g ai/ha
# Excerpt: (§1) Seeds of the desired test plant species were planted in a soil matrix prepared by mixing a loam soil (43 percent silt, 19 percent clay, and 38 percent sand, with a pH of about 8.1 and an organic matter content of about 1.5 percent) and sand in a 70 to 30 ratio. The soil matrix was contained in plastic pots with a surface area of 113 square centimeters. When required to ensure good germination and healthy plants, a fungicide treatment and/or other chemical or physical treatment was applied.
# (§2) A weighed amount, determined by the highest rate to be tested, of each test compound was placed in a 25 mL glass vial and was dissolved in 6 mL of a 97:3 v/v (volume/volume) mixture of acetone and DMSO to obtain concentrated stock solutions. […] The stock solutions obtained were diluted with 18 mL of a 0.1% v/v aqueous solution of Tween® 20 surfactant to obtain spray solutions containing the highest application rate. Additional application rates were obtained by serial dilution of 12 mL of the high rate solution into a solution containing 3 mL of 97:3 v/v mixture of acetone and DMSO and 9 mL of the 0.1% v/v aqueous solution of Tween® 20 surfactant to obtain ½×, ¼×, ⅛× and 1/16× rates of the high rate. Compound requirements are based upon a 12 mL application volume at a rate of 187 L/ha. Formulated compounds were applied to the plant material with an overhead Mandel track sprayer equipped with 8002E nozzles calibrated to deliver 187 L/ha over an application area of 0.503 square meters at a spray height of 18 inches ([…]) above the soil surface. Control plants were sprayed in the same manner with the solvent blank.
# (§3) The treated pots and control pots were placed in a greenhouse maintained with an approximate 15 hour photoperiod and temperatures of about 23-29° C. during the day and 22-28° C. during the night. Nutrients and water were added on a regular basis and supplemental lighting was provided with overhead metal halide 1000-Watt lamps as necessary. The water was added by top-irrigation. After 20-22 days, the condition of the test plants that germinated and grew as compared with that of the untreated plants that emerged and grew was determined visually and scored on a scale of 0 to 100 percent where 0 corresponds to no injury and 100 corresponds to complete kill or no emergence.
# [2] = test system: CHEAL: lambsquarters (Chenopodium album); experiment: Pre-emergent Test I herbicidal activity; details: Table 5, 140 g ai/ha
# Excerpt: as §1, §2, §3
# [3] = test system: EPHHL: poinsettia, wild (Euphorbia heterophylla); experiment: Pre-emergent Test I herbicidal activity; details: Table 5, 140 g ai/ha
# Excerpt: as §1, §2, §3
# [4] = test system: SETFA: foxtail, giant (Setaria faberi); experiment: Pre-emergent Test I herbicidal activity; details: Table 5, 140 g ai/ha
# Excerpt: as §1, §2, §3
# ZEAMX: corn (Zea mays) = experiment: Pre-emergent Test I herbicidal activity; details: Table 5, 140 g ai/ha
# Excerpt: as §1, §2, §3
# [5] = test system: ECHOR = Echinochloa crus-galli P.B. var. oryzoides (VAS.) OHWI (early watergrass); experiment: In-water applied herbicidal activity in transplanted paddy rice; details: 21 DAA
# Protocol: (§4) Rice seeds were planted in Sun Gro MetroMix 306 planting mixture, which typically has a pH of 6.0 to 6.8 and an organic matter content of about 30 percent, in plastic plug trays. Seedlings at the second or third leaf stage of growth were transplanted into 650 mL of mud contained in 960 mL non-perforated plastic pots with a surface area of 86.59 cm^2 four days prior to herbicide application. The paddy was created by filling the 2.5 to 3 cm headspace of the pots with water. When required to ensure good germination and healthy plants, a fungicide treatment and/or other chemical or physical treatment was applied. The plants were grown for 4-14 d in a greenhouse with an approximate 14-h photoperiod which was maintained at about 29° C. during the day and 26° C. during the night. Nutrients were added as Osmocote (17:6:10, Nitrogen:Phosphorus:Potassium (N:P:K)+minor nutrients) at 2 grams (g) per cup. Water was added on a regular basis to maintain the paddy flood, and supplemental lighting was provided with overhead metal halide 1000-Watt lamps as necessary. The plants were employed for testing when they reached the second or third true leaf stage. Treatments consisted of compounds 45, 34, and 66. For technical grade compounds, a weighed amount, determined by the highest rate to be tested, was placed in an individual 120 mL glass vial and was dissolved in 20 mL of acetone to obtain concentrated stock solutions. […] The concentrated stock solutions obtained were diluted with 20 mL of an aqueous mixture containing 2.5% Agri-dex crop oil concentrate (v/v). Applications were made by injecting an appropriate amount of the stock solution into the aqueous layer of the paddy. Control plants were treated in the same manner with the solvent blank. All treated plant material received the same concentration of acetone and crop oil concentrate. The treated plants and control plants were placed in a greenhouse as described above and water was added as needed to maintain a paddy flood. After approximately 3 weeks, the condition of the test plants, compared with that of the untreated plants, was determined visually and scored on a scale of 0 to 100 percent where 0 corresponds to no injury and 100 corresponds to complete kill. By applying the well-accepted probit analysis as described by J. Berkson in Journal of the […], 48, 565 (1953) and by D. Finney in “Probit Analysis” Cambridge University Press (1952) or by plotting the mean data and fitting a logarithmic curve to the portion of the data where there was a dose response using Microsoft Excel®, the above data can be used to calculate GR50 and GR90 values, which are defined as growth reduction factors that correspond to the effective dose of herbicide required to kill or control 50 percent or 90 percent, respectively, of a target plant.
# [6] = test system: FIMMI = Fimbristylis miliacea (L.) VAHL (globe fringerush); experiment: as above; details: 21 DAA
# Protocol: as §4
# [7] = test system: LEFCH = Leptochloa chinensis (L.) NEES (Chinese sprangletop); experiment: as above; details: 21 DAA
# Protocol: as §4
# [8] = dose to kill or control 50 percent
# [9] = dose to kill or control 90 percent
structure (smiles),measurement,setting,value
COc1c(N)cc(-c2ccc(Cl)cc2)nc1C(=O)O [Compound 46],Visual Growth Reduction (%)-21 Days after Application AMARE,[1],95%
same,Visual Growth Reduction (%)-21 Days after Application CHEAL,[2],95%
same,Visual Growth Reduction (%)-21 Days after Application EPHHL,[3],100%
same,Visual Growth Reduction (%)-21 Days after Application SETFA,[4],100%
same,Visual Growth Reduction (%)-21 Days after Application ZEAMX,ZEAMX: corn (Zea mays),0%
"COc1c(C(=O)OCc2ccccc2)nc(-c2ccc(Cl)c(OC)c2F)c(F)c1N [Compound 66, benzyl 4-amino-6-(4-chloro-2-fluoro-3-methoxyphenyl)-5-fluoro-3-methoxypicolinate]",Mean Visual Injury (%)-21 Days After Application ECHOR,[5]; 2.19 g ae/ha,0%
same,Mean Visual Injury (%)-21 Days After Application ECHOR,[5]; 4.38 g ae/ha,0%
same,Mean Visual Injury (%)-21 Days After Application ECHOR,[5]; 8.75 g ae/ha,8%
same,Mean Visual Injury (%)-21 Days After Application ECHOR,[5]; 17.5 g ae/ha,21%
same,Mean Visual Injury (%)-21 Days After Application ECHOR,[5]; 35 g ae/ha,89%
same,Mean Visual Injury (%)-21 Days After Application ECHOR,[5]; 70 g ae/ha,95%
same,GR50 ECHOR,[5]; [8],21.2 g ae/ha
same,GR90 ECHOR,[5]; [9],59.0 g ae/ha
same,Mean Visual Injury (%)-21 Days After Application FIMMI,[6]; 2.19 g ae/ha,0%
same,Mean Visual Injury (%)-21 Days After Application FIMMI,[6]; 4.38 g ae/ha,10%
same,Mean Visual Injury (%)-21 Days After Application FIMMI,[6]; 8.75 g ae/ha,36%
same,Mean Visual Injury (%)-21 Days After Application FIMMI,[6]; 17.5 g ae/ha,73%
same,Mean Visual Injury (%)-21 Days After Application FIMMI,[6]; 35 g ae/ha,100%
same,Mean Visual Injury (%)-21 Days After Application FIMMI,[6]; 70 g ae/ha,100%
same,GR50 FIMMI,[6]; [8],10.3 g ae/ha
same,GR90 FIMMI,[6]; [9],29.7 g ae/ha
same,Mean Visual Injury (%)-21 Days After Application LEFCH,[7]; 2.19 g ae/ha,0%
same,Mean Visual Injury (%)-21 Days After Application LEFCH,[7]; 4.38 g ae/ha,0%
same,Mean Visual Injury (%)-21 Days After Application LEFCH,[7]; 8.75 g ae/ha,0%
same,Mean Visual Injury (%)-21 Days After Application LEFCH,[7]; 17.5 g ae/ha,0%
same,Mean Visual Injury (%)-21 Days After Application LEFCH,[7]; 35 g ae/ha,16%
same,Mean Visual Injury (%)-21 Days After Application LEFCH,[7]; 70 g ae/ha,100%
same,GR50 LEFCH,[7]; [8],40.9 g ae/ha
same,GR90 LEFCH,[7]; [9],71.2 g ae/ha
